Source: the NIST ThermoML archive (doi:10.1016/j.fluid.2014.10.003)
Values joined by “and” are separate entries in the source; they are usually repeats but may differ in a detail not shown here. Equal values may be shown once.

Conditions: Liquid, Vibrating tube method

CCCCC(CC)COC(=O)c1ccc(C(=O)OCC(CC)CCCC)c(C(=O)OCC(CC)CCCC)c1 (configuration not stated) [tris(2-ethylhexyl) trimellitate]
Conditions | mass density
293.15 K, 100 kPa | 988.2 kg/m3
293.15 K, 2510 kPa | 989.6 kg/m3
293.15 K, 5000 kPa | 991 kg/m3
293.15 K, 7510 kPa | 992.4 kg/m3
293.15 K, 10010 kPa | 993.8 kg/m3
293.15 K, 15010 kPa | 996.6 kg/m3
293.15 K, 19990 kPa | 999.2 kg/m3
293.15 K, 30010 kPa | 1004.3 kg/m3
293.15 K, 40020 kPa | 1009.2 kg/m3
293.15 K, 50030 kPa | 1013.8 kg/m3
293.15 K, 68010 kPa | 1021.5 kg/m3
313.15 K, 100 kPa | 973.4 kg/m3
313.15 K, 2500 kPa | 974.9 kg/m3
313.15 K, 2510 kPa | 974.9 kg/m3
313.15 K, 5020 kPa | 976.4 kg/m3 and 976.5 kg/m3
313.15 K, 7490 kPa | 977.9 kg/m3
313.15 K, 10010 kPa | 979.4 kg/m3 and 979.5 kg/m3
313.15 K, 15010 kPa | 982.4 kg/m3
313.15 K, 20000 kPa | 985.3 kg/m3
313.15 K, 30030 kPa | 990.8 kg/m3
313.15 K, 40000 kPa | 996 kg/m3
313.15 K, 40020 kPa | 996 kg/m3
313.15 K, 50000 kPa | 1001 kg/m3
313.15 K, 68000 kPa | 1009.3 kg/m3
333.15 K, 100 kPa | 958.9 kg/m3
333.15 K, 2500 kPa | 960.4 kg/m3 and 960.5 kg/m3
333.15 K, 5000 kPa | 962.1 kg/m3
333.15 K, 7510 kPa | 963.8 kg/m3
333.15 K, 10010 kPa | 965.4 kg/m3
333.15 K, 15010 kPa | 968.6 kg/m3
333.15 K, 20000 kPa | 971.6 kg/m3
333.15 K, 30010 kPa | 977.6 kg/m3
333.15 K, 39990 kPa | 983.1 kg/m3
333.15 K, 50000 kPa | 988.4 kg/m3
333.15 K, 67990 kPa | 997.2 kg/m3
353.15 K, 100 kPa | 944.5 kg/m3
353.15 K, 2490 kPa | 946.2 kg/m3
353.15 K, 5020 kPa | 948.1 kg/m3
353.15 K, 7510 kPa | 949.8 kg/m3
353.15 K, 10020 kPa | 951.6 kg/m3
353.15 K, 14990 kPa | 955 kg/m3
353.15 K, 20010 kPa | 958.3 kg/m3
353.15 K, 30000 kPa | 964.7 kg/m3
353.15 K, 40020 kPa | 970.6 kg/m3
353.15 K, 49990 kPa | 976.2 kg/m3
353.15 K, 68000 kPa | 985.5 kg/m3
373.15 K, 100 kPa | 930.1 kg/m3
373.15 K, 2510 kPa | 932 kg/m3
373.15 K, 5020 kPa | 934 kg/m3
373.15 K, 7500 kPa | 935.9 kg/m3
373.15 K, 10040 kPa | 937.9 kg/m3
373.15 K, 15000 kPa | 941.6 kg/m3
373.15 K, 20030 kPa | 945.2 kg/m3
373.15 K, 30010 kPa | 952 kg/m3
373.15 K, 40020 kPa | 958.3 kg/m3
373.15 K, 49990 kPa | 964.3 kg/m3
373.15 K, 68010 kPa | 974.2 kg/m3
